The values that follow come from PMC5837613 (Toxicological Sciences, 2017).

Broadly, the IC50 is the concentration that inhibits the measured activity by half.

Chain of STK35 (Q8TDR2 whole entry): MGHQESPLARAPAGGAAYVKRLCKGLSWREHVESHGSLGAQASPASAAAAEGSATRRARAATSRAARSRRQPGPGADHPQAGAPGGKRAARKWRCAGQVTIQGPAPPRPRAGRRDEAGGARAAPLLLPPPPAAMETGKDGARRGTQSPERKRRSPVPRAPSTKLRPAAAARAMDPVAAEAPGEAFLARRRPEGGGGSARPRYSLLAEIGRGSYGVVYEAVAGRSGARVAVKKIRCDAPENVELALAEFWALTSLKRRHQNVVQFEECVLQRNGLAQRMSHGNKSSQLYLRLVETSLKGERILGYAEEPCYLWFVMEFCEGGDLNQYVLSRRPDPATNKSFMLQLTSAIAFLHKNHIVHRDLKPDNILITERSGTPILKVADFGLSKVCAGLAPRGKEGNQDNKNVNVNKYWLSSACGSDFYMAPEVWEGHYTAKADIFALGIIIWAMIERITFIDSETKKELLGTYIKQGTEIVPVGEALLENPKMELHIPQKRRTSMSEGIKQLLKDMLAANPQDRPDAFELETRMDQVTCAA

The first series has as its target STK35 (Homo sapiens, UniProt Q8TDR2). Description: KinomeScan competition binding assay, STK35.
Settings: not given
On to `CNC(=O)c1cc(COc2nnc(Nc3ccc(Cl)cc3)c3ccoc23)ccn1` [Telatinib], for which the IC50 is more than 32 µM.
Take `NC(=O)Nc1cc(-c2cccc(F)c2)sc1C(=O)N[C@H]1CCCNC1` [AZD7762]: the IC50 was more than 3.2 µM.
Same read-out and setting: under `COc1cc2nccc(Oc3ccc(NC(=O)C4(C(=O)Nc5ccc(F)cc5)CC4)cc3)c2cc1OC` [Cabozantinib] stands 5.7 µM.
`Cc1cc(Nc2cc(N3CCN(C)CC3)nc(/C=C/c3ccccc3)n2)n[nH]1` [ENMD-2076] yielded an IC50 of more than 10 µM.
For the molecule `COc1cc2nccc(Oc3ccc(NC(=O)Nc4cc(C)on4)c(Cl)c3)c2cc1OC` [Tivozanib], the IC50 was more than 3.2 µM.

The target of the next series is RPS6KB1 (Homo sapiens, UniProt P23443). In words: KinomeScan competition binding assay, RPS6KB1.
Chain of RPS6KB1 (P23443 whole entry): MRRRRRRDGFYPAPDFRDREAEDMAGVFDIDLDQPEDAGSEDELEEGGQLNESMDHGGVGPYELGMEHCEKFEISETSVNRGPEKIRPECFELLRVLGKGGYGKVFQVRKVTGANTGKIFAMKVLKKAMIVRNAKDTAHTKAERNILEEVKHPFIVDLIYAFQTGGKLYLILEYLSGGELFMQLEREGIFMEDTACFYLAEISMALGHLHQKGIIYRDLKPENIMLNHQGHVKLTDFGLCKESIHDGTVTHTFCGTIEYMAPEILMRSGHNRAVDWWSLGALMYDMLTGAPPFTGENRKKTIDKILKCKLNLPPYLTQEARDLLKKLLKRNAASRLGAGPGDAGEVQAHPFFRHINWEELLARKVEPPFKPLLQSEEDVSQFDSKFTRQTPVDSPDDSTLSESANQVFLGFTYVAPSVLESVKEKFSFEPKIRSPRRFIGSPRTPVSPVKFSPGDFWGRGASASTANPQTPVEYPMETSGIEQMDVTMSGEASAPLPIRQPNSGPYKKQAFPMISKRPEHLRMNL
Settings: not given
Turning to `CNC(=O)c1cc(COc2nnc(Nc3ccc(Cl)cc3)c3ccoc23)ccn1` [Telatinib], the IC50 is more than 32 µM.
The same measure, in the same setting: under `NC(=O)Nc1cc(-c2cccc(F)c2)sc1C(=O)N[C@H]1CCCNC1` [AZD7762] stands 3 µM.
Still for that read-out and setting: under `COc1cc2nccc(Oc3ccc(NC(=O)C4(C(=O)Nc5ccc(F)cc5)CC4)cc3)c2cc1OC` [Cabozantinib] stands 13.2 µM; under `COc1cc2nccc(Oc3ccc(NC(=O)Nc4cc(C)on4)c(Cl)c3)c2cc1OC` [Tivozanib], more than 3.2 µM.

Test system in a further series: not given
Test: not given
The note with it: human plasma, Cmax at steady state; ref 1-28 of Supplementary Text; cited from earlier work.
As for `CNC(=O)c1cc(COc2nnc(Nc3ccc(Cl)cc3)c3ccoc23)ccn1` [Telatinib], the Cmaxss was 2000 to 3600 nM.
Regarding `COc1cc2nccc(Oc3ccc(NC(=O)C4(C(=O)Nc5ccc(F)cc5)CC4)cc3)c2cc1OC` [Cabozantinib], the Cmaxss is 2800 nM.
For the molecule `Cc1cc(Nc2cc(N3CCN(C)CC3)nc(/C=C/c3ccccc3)n2)n[nH]1` [ENMD-2076], the Cmaxss is 600 to 1500 nM.
For the molecule `COc1cc2nccc(Oc3ccc(NC(=O)Nc4cc(C)on4)c(Cl)c3)c2cc1OC` [Tivozanib], the Cmaxss is 200 nM.

The target in a further series is FAK (Homo sapiens, UniProt Q05397). Description: KinomeScan competition binding assay, FAK.
Chain of FAK (Q05397 whole entry): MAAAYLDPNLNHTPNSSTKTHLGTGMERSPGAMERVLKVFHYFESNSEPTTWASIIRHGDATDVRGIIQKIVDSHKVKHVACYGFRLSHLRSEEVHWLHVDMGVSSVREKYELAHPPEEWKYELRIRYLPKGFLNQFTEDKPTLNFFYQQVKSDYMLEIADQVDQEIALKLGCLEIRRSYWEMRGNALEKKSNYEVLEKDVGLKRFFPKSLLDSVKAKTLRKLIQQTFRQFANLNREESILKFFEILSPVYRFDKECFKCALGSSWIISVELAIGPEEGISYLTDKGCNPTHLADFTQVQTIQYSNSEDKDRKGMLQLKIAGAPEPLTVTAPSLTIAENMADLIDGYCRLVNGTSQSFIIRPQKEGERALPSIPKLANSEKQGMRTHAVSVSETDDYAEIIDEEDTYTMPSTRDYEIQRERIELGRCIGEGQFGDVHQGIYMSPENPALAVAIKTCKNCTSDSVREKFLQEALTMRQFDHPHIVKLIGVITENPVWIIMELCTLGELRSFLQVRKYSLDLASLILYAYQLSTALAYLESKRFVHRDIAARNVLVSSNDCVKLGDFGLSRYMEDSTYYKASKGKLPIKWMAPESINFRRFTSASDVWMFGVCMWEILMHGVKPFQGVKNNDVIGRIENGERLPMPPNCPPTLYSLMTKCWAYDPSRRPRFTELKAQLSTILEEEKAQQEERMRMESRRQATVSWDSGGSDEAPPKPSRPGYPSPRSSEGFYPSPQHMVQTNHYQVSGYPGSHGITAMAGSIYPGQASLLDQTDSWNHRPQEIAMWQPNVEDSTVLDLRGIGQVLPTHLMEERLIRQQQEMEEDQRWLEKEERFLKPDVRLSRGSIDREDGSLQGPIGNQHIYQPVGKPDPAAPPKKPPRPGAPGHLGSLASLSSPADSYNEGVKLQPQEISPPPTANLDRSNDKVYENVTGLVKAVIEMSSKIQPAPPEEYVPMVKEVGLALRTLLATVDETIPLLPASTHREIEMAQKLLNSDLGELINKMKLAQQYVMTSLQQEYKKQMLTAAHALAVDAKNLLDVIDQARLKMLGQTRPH
Settings: not given
In turn, `CNC(=O)c1cc(COc2nnc(Nc3ccc(Cl)cc3)c3ccoc23)ccn1` [Telatinib] displayed an IC50 of more than 32 µM.
Same read-out and setting: as for `NC(=O)Nc1cc(-c2cccc(F)c2)sc1C(=O)N[C@H]1CCCNC1` [AZD7762], the figure is 0.1 µM; as for `COc1cc2nccc(Oc3ccc(NC(=O)C4(C(=O)Nc5ccc(F)cc5)CC4)cc3)c2cc1OC` [Cabozantinib], 2.8 µM; as for `COc1cc2nccc(Oc3ccc(NC(=O)Nc4cc(C)on4)c(Cl)c3)c2cc1OC` [Tivozanib], 3.1 µM.

A further series concerns hiPSC CM (iCell Cardiomyocytes). Description: Cellular ATP levels. In kind it is cell-based, human. The note with it: 3 µM, 24 h after compound addition.
As for `CN[C@@H]1C[C@H]2O[C@@](C)([C@@H]1OC)n1c3ccccc3c3c4c(c5c6ccccc6n2c5c31)C(=O)NC4` [staurosporine], the “cytotoxicity (decreased cellular ATP levels and decreased cell index)” value is recorded as “induce cell death”.

Another series shares this test system. Description: Cellular impedance. In kind it is cell-based, human. To be noted: 3 µM, 2 h exposure.
For the molecule `Cc1[nH]c(/C=C2\C(=O)Nc3ccc(F)cc32)c(C)c1C(=O)NC[C@H](O)CN1CCOCC1` [SU14813], the “effect on CM beating (beat rate or amplitude)” value is “no effect on CM beating”.
The same measure, in the same setting: under `Cc1cc2c(F)c(Oc3ncnn4cc(OC[C@@H](C)O)c(C)c34)ccc2[nH]1` [BMS-540215] stands “induced CM beating effects”.
Same read-out and setting: as for `Cc1cnc(Nc2ccc(OCCN3CCCC3)cc2)nc1Nc1cccc(S(=O)(=O)NC(C)(C)C)c1` [TG-101348], the entry is “no effect on CM beating”.
Same read-out and setting: as for `OCCn1cc(-c2ccc3c(c2)CC/C3=N\O)c(-c2ccncc2)n1` [GDC-0879], the entry is “induced CM beating effects”.

The series is the same for the next values; noted with them: 3 µM, 2 h exposure; significant = >3*SD of vehicle.
With `Cc1[nH]nc2ccc(-c3cncc(OC[C@@H](N)Cc4ccccc4)c3)cc12` [A-674563], the “change in beat amplitude” value was “increased amplitude” and the “change in beat rate” value is on record as “independent of a change in beat rate”.
The corresponding values for `C[C@]12O[C@H](C[C@]1(O)CO)n1c3ccccc3c3c4c(c5c6ccccc6n2c5c31)CNC4=O` [CEP-701] are “decreased amplitude” and “increased beat rate”.
For `CCn1c(-c2nonc2N)nc2c(C#CC(C)(C)O)ncc(OC[C@H]3CCCNC3)c21` [GSK-690693] the same measures were “increased amplitude” and “independent of a change in beat rate”.
For `CO[C@@H]1[C@H](N(C)C(=O)c2ccccc2)C[C@H]2O[C@]1(C)n1c3ccccc3c3c4c(c5c6ccccc6n2c5c31)C(=O)NC4` [PKC-412] the same measures were “decreased amplitude” and “increased beat rate”.
Consider `OCCn1cc(-c2ccc3c(c2)CC/C3=N\O)c(-c2ccncc2)n1` [GDC-0879], for which the “change in beat amplitude” value is listed as “independent of a change in amplitude” and the “change in beat rate” value was “increased beat rate”.
